From US7795378B2, “Peptide compositions for treatment of sexual dysfunction” (Palatin Technologies, Inc., priority 2002, dated 2010)
*1 amine or outer side, *2 acyl side, *3 side chain or, on linkers, in order; H or OH if unused. Where a SMILES comes first, the peptide text is derived from it. [ ]: non-standard residue; d: D form. The star is where a group is joined. Arg(NO2) = N=C(NCCC[C@H](N)C(=O)O)N[N+](=O)[O-]; Ser(Bzl) = O=C([C@H](COCc1ccccc1)N[*:1])[*:2]; dPhe(4-Cl) = N[C@H](Cc1ccc(Cl)cc1)C(=O)O; d2Nal = N[C@H](Cc1ccc2ccccc2c1)C(=O)O; Cit = NC(=O)NCCC[C@H](N)C(=O)O; Orn = NCCC[C@H](N)C(=O)O; Ahp = NCCCCCCC(=O)O; Bn = c1ccc(C*)cc1

Tests used:
[1] = target: T1, MC1-R (B16-F1 mouse melanoma cells) (Mus musculus, UniProt Q01727); test: Competitive inhibition binding assay with 125I-NDP-MSH, MC1 receptor; conditions: 10 μM peptide, 0 assigned when raw inhibition between −10% and 10%, read-out: % Inhibition at 10 μM concentration at MC1-Receptor
T1 construct: B-16 mouse melanoma cells (containing MC1-R); endogenous in cells; host or cells: B16-F1 mouse melanoma cells (membranes)
T1 sequence (Q01727 whole entry): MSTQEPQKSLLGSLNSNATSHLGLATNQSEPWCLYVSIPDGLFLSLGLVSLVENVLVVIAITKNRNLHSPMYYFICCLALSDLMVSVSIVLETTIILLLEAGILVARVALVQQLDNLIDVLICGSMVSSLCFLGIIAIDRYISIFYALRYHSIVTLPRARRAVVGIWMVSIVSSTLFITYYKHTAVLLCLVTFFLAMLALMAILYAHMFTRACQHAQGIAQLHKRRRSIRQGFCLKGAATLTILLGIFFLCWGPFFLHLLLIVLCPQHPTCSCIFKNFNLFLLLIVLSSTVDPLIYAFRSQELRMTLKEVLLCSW
Procedure: (§1) Competitive inhibition binding assay was conducted using membranes prepared from hMC3-R, hMC4-R, hMC5-R, and B-16 mouse melanoma cells (containing MC1-R) using 0.4 nM ^125I-NDP-MSH (0.2 nM for MCL-R) (New England Nuclear, Boston, Mass., USA) in 50 mM HEPES buffer containing 1 mM MgCl2, 2 mM CaCl2, and 5 mM KCl, at pH 7.2. The assay tube also contained a chosen concentration of the peptides of this invention, for determining inhibition of the binding of ^125I-NDP-MSH to its receptor. Non-specific binding was measured by complete inhibition of binding of ^125I-NDP-MSH in the assay in the presence of 1 μM α-MSH. Incubation was for 90 minutes at 37° C., after which the assay mixture was filtered and the membranes washed three times with ice cold buffer. The filter was dried and counted in a gamma counter for remaining radioactivity bound to the membranes. 100% specific binding was defined as the difference in radioactivity (cpm) bound to cell membranes in the absence and presence of 1 μM α-MSH. The cpm obtained in the presence of peptides of this invention were normalized with respect to 100% specific binding to determine the percent inhibition of ^125I-NDP-MSH binding. Each assay was conducted in triplicate.
(§2) The binding of the peptides of Examples 1 to 13, inclusive, to melanocortin receptors was evaluated, with results shown on Table 1. Relative binding was determined by competitive inhibition using an α-MSH analog, iodinated NDP-MSH. B16-Fl mouse melanoma cells were used as the source of MC1 receptors and HEK 293 cells, transfected with human melanocortin receptor sequences, were used as the source of MC3, MC4 and MC5 receptors. A standard competitive binding assay protocol as described above was followed, using ^125I-NDP-MSH as the radioligand. A “0” percent inhibition was assigned when the raw percent inhibition, as an average of at least triplicate measures, was between −10% and 10%; in the majority of instances, the raw percent inhibition was between −10% and 0% inhibition.

hMC3-R = target: T2, hMC3-R (Homo sapiens, UniProt P41968); test: Competitive inhibition binding assay with 125I-NDP-MSH, MC3 receptor; conditions: 10 μM peptide, 0 assigned when raw inhibition between −10% and 10%, read-out: % Inhibition at 10 μM concentration at MC3-Receptor
T2 construct: expressed in transfected cells; host or cells: HEK 293 cells (membranes)
T2 sequence (P41968 whole entry): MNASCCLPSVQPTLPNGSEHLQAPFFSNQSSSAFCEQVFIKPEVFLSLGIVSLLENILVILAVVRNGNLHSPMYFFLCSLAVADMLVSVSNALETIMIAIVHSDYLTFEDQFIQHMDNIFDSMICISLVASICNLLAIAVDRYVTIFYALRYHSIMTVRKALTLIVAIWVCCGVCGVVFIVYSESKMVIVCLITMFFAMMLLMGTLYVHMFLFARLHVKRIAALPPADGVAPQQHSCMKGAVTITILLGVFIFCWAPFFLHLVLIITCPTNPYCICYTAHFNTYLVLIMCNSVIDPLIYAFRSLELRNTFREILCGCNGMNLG
Procedure: as §1, §2

hMC5-R = target: T3, hMC5-R (Homo sapiens, UniProt P33032); test: Competitive inhibition binding assay with 125I-NDP-MSH, MC5 receptor; conditions: 10 μM peptide, 0 assigned when raw inhibition between −10% and 10%, read-out: % Inhibition at 10 μM concentration at MC5-Receptor
T3 construct: expressed in transfected cells; host or cells: HEK 293 cells (membranes)
T3 sequence (P33032 whole entry): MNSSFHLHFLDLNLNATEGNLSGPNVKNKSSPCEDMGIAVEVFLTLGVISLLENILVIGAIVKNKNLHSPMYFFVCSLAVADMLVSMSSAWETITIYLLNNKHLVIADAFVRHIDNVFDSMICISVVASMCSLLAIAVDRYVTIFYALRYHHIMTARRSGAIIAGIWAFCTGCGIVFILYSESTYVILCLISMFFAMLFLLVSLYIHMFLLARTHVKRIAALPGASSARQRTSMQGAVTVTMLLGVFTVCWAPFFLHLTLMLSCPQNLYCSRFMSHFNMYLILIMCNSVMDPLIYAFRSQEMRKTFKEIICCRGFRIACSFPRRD
Procedure: as §1, §2

hMC4-R = target: T4, hMC4-R (Homo sapiens, UniProt P32245); test: Competitive inhibition binding assay with 125I-NDP-MSH, MC4 receptor; conditions: 10 μM peptide, 0 assigned when raw inhibition between −10% and 10%, read-out: % Inhibition at 10 μM concentration at MC4-Receptor
T4 construct: expressed in transfected cells
T4 sequence (P32245 whole entry): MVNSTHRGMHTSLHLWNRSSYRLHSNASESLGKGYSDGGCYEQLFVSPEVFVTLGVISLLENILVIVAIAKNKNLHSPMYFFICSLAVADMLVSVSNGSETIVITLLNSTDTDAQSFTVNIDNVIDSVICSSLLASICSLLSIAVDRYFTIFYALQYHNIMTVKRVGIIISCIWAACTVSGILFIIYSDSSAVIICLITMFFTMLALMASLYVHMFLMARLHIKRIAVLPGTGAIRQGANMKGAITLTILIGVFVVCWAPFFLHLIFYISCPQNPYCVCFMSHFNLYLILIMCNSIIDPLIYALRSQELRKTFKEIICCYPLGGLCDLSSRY
Procedure: as §1, §2

male Sprague-Dawley rats = test: Induction of penile erections in male rats; assay type: in vivo, rat
Procedure: The ability of the peptides of Examples 1 to 13 to induce penile erection in male rats was evaluated. Male Sprague-Dawley rats weighing 200-250 g were kept on a 12 hour on/off light cycle with food and water ad libitum. All behavioral studies were performed between 10 a.m. and 5 p.m. Groups of 4-8 rats were treated with peptides at a variety of doses via intravenous administration. Immediately after administration, rats were placed into individual polystyrene cages (27 cm long, 16 cm wide, and 25 cm high) for behavioral observation.
The efficacious dose of NH2—(CH2)6CO-Ser(Bzl)-D-Phe(4-Cl)-Arg, made as in Example 1 above, to induce penile erection in Sprague Dawley rats by intravenous dosing and oral administration was determined. […] NH2—(CH2)6CO-Ser(Bzl)-D-Phe(4-Cl)-Arg was efficacious at doses as low as 0.1 to 1 μg/kg of body weight when administered by oral means, and at doses lower than 0.001 μg/kg of body weight when administered by intravenous means.
The efficacious dose of NH2—(CH2)6—CO-Ser(Bzl)-D-Phe(4-Cl)-Arg(NO2), made as in Example 5 above, to induce penile erection in Sprague Dawley rats by intravenous dosing was determined. […] It was determined that NH2—(CH2)6—CO-Ser(Bzl)-D-Phe(4-Cl)-Arg(NO2) was efficacious at doses as low as 0.001 to 10 μg/kg of body weight when administered by intravenous means, with efficacy determined by induction of penile erection in 100% of animals. The optimal dose response was at 1 μg/kg of body weight. FIG. 1 depicts the dose response profile, with the error bars depicting standard deviation where n (the number of animals) is between 8 and 19, depending on the dose point.
The efficacious dose of NH2—(CH2)6—CO-Ser(Bzl)-D-Phe(4-Cl)-Arg(NO2), made as in Example 5 above, to induce penile erection in Sprague Dawley rats by intranasal administration using a micropipetor to deliver 25 μL of solution into one nostril was determined. […] It was determined that NH2—(CH2)6—CO-Ser(Bzl)-D-Phe(4-Cl)-Arg(NO2) was efficacious at doses between 0.01 μg/kg and 100 μg/kg of body weight when administered by intranasal means. The peak dose response was at an intranasal dose of 0.1 μg/kg of body weight.

male rats = test: Induced penile erections after pre-administration of MC4-R antagonist SHU9119; assay type: in vivo, rat; conditions: SHU9119 approximately 5 minutes before peptide
Description: It is known that MC4-R antagonists inhibit the erectile activity of MC4-R agonists in a dose dependent manner. Such antagonists include SHU9119, a nonselective melanocortin antagonist of the formula Ac-Nle-cyc/o(-Asp-His-D-Nal(2′)-Arg-Trp-Lys)-NH2 (Hruby V. J., Lu D., Sharma S. D., et al. Cyclic lactam alpha-melanotropin analogues of Ac-Nle^4-cyclo[Asp^5, D-Phe^7, Lys^10]-NH2 with bulky aromatic amino acids at position 7 show high antagonist potency and selectivity at specific melanocortin receptors. J Med Chem 38:3454-3461 (1995)). Antagonists such as SHU9119 are known to inhibit MT-II and other known melanocortin receptor-specific agonists that induce erectile activity. SHU9119 was administered to male rats approximately 5 minutes before administration of either NH2—(CH2)6CO-Ser(Bzl)-D-Phe(4-Cl)-Arg or NH2—(CH2)6CO-Ser(Bzl)-D-Phe(4-Cl)-Arg-Trp-NH2, with Ac-Nle-cyc/o(Asp-His-D-Phe-Arg-Trp-Lys)-OH, a known MC4-R agonist, as a positive control.

| inhibition at 10 µM [1] [%] | inhibition at 10 µM (hMC3-R) [%] | inhibition at 10 µM (hMC5-R) [%] | inhibition at 10 µM (hMC4-R) [%] | Molecule | animals with induction of penile erection at efficacious doses (male Sprague-Dawley rats; intravenous, 0.001 to 10 μg/kg) [%] | peak (optimal) dose response, intranasal (male Sprague-Dawley rats; male Sprague Dawley rats) [µg/kg] | peak (optimal) dose response, intranasal (male Sprague-Dawley rats; male Sprague Dawley rats, listed as NH2—(CH2)6Co-Ser(Bzl)-D-Phe(4-Cl)-Arg(NO2)) | optimal dose response, intravenous (male Sprague-Dawley rats; male Sprague Dawley rats, intravenous) [µg/kg] | effect of SHU9119 pre-administration on induced erections (male rats) |
| --- | --- | --- | --- | --- | --- | --- | --- | --- | --- |
| 0 | 0 | 0 | 0 | CC(=O)N[C@@H](COCc1ccccc1)C(=O)N[C@H](Cc1ccc(Cl)cc1)C(=O)N[C@@H](CCCNC(=N)N)C(=O)O [Ac-Ser(Bzl)-D-Phe(4-Cl)-Arg] (Ac-Ser(Bn)-[dPhe(4-Cl)]-Arg-OH) | – | – | – | – | – |
| 0 | 0 | 0 | 0 | C[C@H](NC(=O)CCCCCCN)C(=O)N[C@H](Cc1ccc(Cl)cc1)C(=O)N[C@@H](CCCNC(=N)N)C(=O)O [NH2—(CH2)6—CO-Ala-D-Phe(4-Cl)-Arg] (H-[Ahp]A[dPhe(4-Cl)]R-OH) | – | – | – | – | – |
| 0 | 0 | 0 | 0 | C[C@@H](NC(=O)[C@H](COCc1ccccc1)NC(=O)CCCCCCN)C(=O)N[C@@H](CCCNC(=N)N)C(=O)O [NH2—(CH2)6—CO-Ser(Bzl)-D-Ala-Arg] (H-[Ahp]S(Bn)[dA]R-OH) | – | – | – | – | – |
| 0 | 0 | 0 | 0 | N=C(N)NCCC[C@H](NC(=O)[C@@H](Cc1ccc2ccccc2c1)NC(=O)[C@H](COCc1ccccc1)NC(=O)CCCCCCN)C(N)=O [NH2—(CH2)6—CO-Ser(Bzl)-D-Nal 2-Arg-NH2] (H-[Ahp]S(Bn)[d2Nal]R-NH2) | – | – | – | – | – |
| 0 | 0 | 0 | 0 | N=C(N)NCCC[C@H](NC(=O)[C@@H](Cc1ccc2ccccc2c1)NC(=O)[C@H](COCc1ccccc1)NC(=O)CCCCCCN)C(=O)O [NH2—(CH2)6—CO-Ser(Bzl)-D-Nal 2-Arg] (H-[Ahp]S(Bn)[d2Nal]R-OH) | – | – | – | – | – |
| 0 | 0 | 0 | 0 | C[C@H](NC(=O)[C@@H](Cc1ccc(Cl)cc1)NC(=O)[C@H](COCc1ccccc1)NC(=O)CCCCCCN)C(=O)O [NH2—(CH2)6—CO-Ser(Bzl)-D-Phe(4-Cl)-Ala] (H-[Ahp]S(Bn)[dPhe(4-Cl)]A-OH) | – | – | – | – | – |
| 0 | 0 | 0 | 0 | NCCCCCCC(=O)N[C@@H](COCc1ccccc1)C(=O)N[C@H](Cc1ccc(Cl)cc1)C(=O)N[C@@H](CCCNC(N)=N[N+](=O)[O-])C(=O)O [NH2—(CH2)6—CO-Ser(Bzl)-D-Phe(4-Cl)-Arg(NO2)] (H-[Ahp]S(Bn)[dPhe(4-Cl)][Arg(NO2)]-OH) | 100 | 0.1 | about 0.1 μg/kg | 1 | – |
| 0 | 0 | 0 | 0 | N=C(N)NCCC[C@H](NC(=O)[C@@H](Cc1ccc(Cl)cc1)NC(=O)[C@H](COCc1ccccc1)NC(=O)CCCCCCN)C(N)=O [NH2—(CH2)6—CO-Ser(Bzl)-D-Phe(4-Cl)-Arg-NH2] (H-[Ahp]S(Bn)[dPhe(4-Cl)]R-NH2) | – | – | – | – | – |
| 0 | 0 | 0 | 0 | NCCCCCCC(=O)N[C@@H](COCc1ccccc1)C(=O)N[C@H](Cc1ccc(Cl)cc1)C(=O)N[C@@H](CCCNC(N)=O)C(=O)O [NH2—(CH2)6—CO-Ser(Bzl)-D-Phe(4-Cl)-Cit] (H-[Ahp]S(Bn)[dPhe(4-Cl)][Cit]-OH) | – | – | – | – | – |
| 0 | 0 | 0 | 0 | NCCCCCCC(=O)N[C@@H](COCc1ccccc1)C(=O)N[C@H](Cc1ccc(Cl)cc1)C(=O)N[C@@H](CCCCN)C(=O)O [NH2—(CH2)6—CO-Ser(Bzl)-D-Phe(4-Cl)-Lys] (H-[Ahp]S(Bn)[dPhe(4-Cl)]K-OH) | – | – | – | – | – |
| 0 | 0 | 0 | 0 | NCCCCCCC(=O)N[C@@H](COCc1ccccc1)C(=O)N[C@H](Cc1ccc(Cl)cc1)C(=O)N[C@@H](CCCN)C(=O)O [NH2—(CH2)6—CO-Ser(Bzl)-D-Phe(4-Cl)-Orn] (H-[Ahp]S(Bn)[dPhe(4-Cl)][Orn]-OH) | – | – | – | – | – |
| 0 | 0 | 0 | 0 | N=C(N)NCCC[C@H](NC(=O)[C@@H](Cc1ccc(Cl)cc1)NC(=O)[C@@H](N)COCc1ccccc1)C(=O)O [Ser(Bzl)-D-Phe(4-Cl)-Arg] (H-Ser(Bn)-[dPhe(4-Cl)]-Arg-OH) | – | – | – | – | – |
| – | – | – | – | NH2—(CH2)6CO-Ser(Bzl)-D-Phe(4-Cl)-Arg-Trp-NH2 ({NH2‑(CH2)6‑CO}-[Ser(Bzl)][dPhe(4-Cl)]RW-NH2) | – | – | – | – | resulted in erections at a rate equivalent to that obtained without pre-administration of SHU9119 |
